In paper PMC4403932 (Journal of Medicinal Chemistry, 2015):

Key:
Format in all cases: binding
[1] = biological target: T1, BRD3(1) (Homo sapiens, UniProt Q15059); assay: Protein stability (thermal) shift assay, BRD3(1); settings: compound 10 μM, protein 2 μM; average of triplicate
T1 construct: Fragments were tested in a thermal shift assay against bromodomains of the BET subfamily; made in house
Procedure: (§1) Thermal melting experiments were carried out using an Mx3005p real time PCR machine (Stratagene). Proteins were buffered in 10 mM HEPES, pH 7.5, 500 mM NaCl and assayed in a 96-well plate at a final concentration of 2 μM in 20 μL volume. Compounds were added at a final concentration of 10 or 100 μM. SYPRO Orange (Molecular Probes) was added as a fluorescence probe at a dilution of 1 in 1000. Excitation and emission filters for the SYPRO-Orange dye were set to 465 and 590 nm, respectively. The temperature was raised with a step of 3 °C per minute from 25 to 96 °C, and fluorescence readings were taken at each interval. The temperature dependence of the fluorescence during the protein denaturation process was approximated by the equation [drawing 1] where ΔuG is the difference in unfolding free energy between the folded and unfolded state, R is the gas constant, and yF and yU are the fluorescence intensity of the probe in the presence of completely folded and unfolded protein, respectively.[65] The baselines of the denatured and native states were approximated by a linear fit. The observed temperature shifts, ΔTm^obs, were recorded as the difference between the transition midpoints of sample and reference wells containing protein without ligand in the same plate and determined by nonlinear least-squares fit. Temperature shifts (ΔTm^obs) for three independent measurements per proteins/compound are summarized in Supporting Information Table S1.

[2] = biological target: T2, BRD9 (Homo sapiens, UniProt Q9H8M2); assay: Protein stability (thermal) shift assay, BRD9; settings: for ΔTm at 10 µM: compound 10 μM, protein 2 μM, average of triplicate, read-out: ΔTm Shift, BRD9
T2 construct: made in house
T2 sequence (Q9H8M2 136-240 limits assumed): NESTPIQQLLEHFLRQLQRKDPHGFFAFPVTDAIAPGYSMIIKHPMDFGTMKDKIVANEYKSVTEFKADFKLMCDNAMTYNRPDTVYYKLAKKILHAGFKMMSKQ
Procedure: as §1

[3] = biological target: T3, CREBBP (Homo sapiens, UniProt Q92793); assay: Protein stability (thermal) shift assay, CREBBP; settings: compound 10 μM, protein 2 μM; average of triplicate; read-out: ΔTm Shift, CREBBP
T3 construct: small thermal shits (1.0–1.3 °C) for the bromodomain of CREBBP; made in house
Procedure: as §1

[4] = biological target: T4, BRD2(1) (Homo sapiens, UniProt P25440); assay: Protein stability (thermal) shift assay, BRD2(1); settings: compound 10 μM, protein 2 μM; average of triplicate
T4 construct: Fragments were tested in a thermal shift assay against bromodomains of the BET subfamily; made in house
Procedure: as §1

[5] = biological target: T5, BRD4(1) (Homo sapiens, UniProt O60885); assay: Protein stability (thermal) shift assay, BRD4(1); settings: compound 10 μM, protein 2 μM; average of triplicate; read-out: ΔTm Shift, BRD4(1)
T5 construct: made in house
Procedure: as §1

[6] = biological target: T6, BAZ2B (Homo sapiens, UniProt Q9UIF8); assay: Protein stability (thermal) shift assay, BAZ2B; settings: compound 10 μM, protein 2 μM; average of triplicate; read-out: ΔTm Shift, BAZ2BA
T6 construct: representative BRDs from other structural subfamilies (family I, PCAF); family III, CREBBP; family IV, BRD9; family V, BAZ2B; made in house
T6 sequence (Q9UIF8 2060-2164 limits assumed): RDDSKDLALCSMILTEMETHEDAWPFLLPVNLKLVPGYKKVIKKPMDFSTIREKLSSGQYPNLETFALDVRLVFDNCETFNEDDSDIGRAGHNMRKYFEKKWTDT
Procedure: as §1

[7] = biological target: T7, BRD4(2) (Homo sapiens, UniProt O60885); assay: Protein stability (thermal) shift assay, BRD4(2); settings: compound 10 μM, protein 2 μM; average of triplicate
T7 construct: made in house
Procedure: as §1

[8] = biological target: T8, BRDT(2) (Homo sapiens, UniProt Q58F21); assay: Protein stability (thermal) shift assay, BRDT(2); settings: compound 10 μM, protein 2 μM; average of triplicate; read-out: ΔTm Shift, BRDT(2)
T8 construct: made in house
Procedure: as §1

[9] = biological target: T9, BRD2(2) (Homo sapiens, UniProt P25440); assay: Protein stability (thermal) shift assay, BRD2(2); settings: compound 10 μM, protein 2 μM; average of triplicate
T9 construct: made in house
Procedure: as §1

[10] = biological target: T10, PB1(5) (Homo sapiens, UniProt Q86U86); assay: Protein stability (thermal) shift assay, PB1(5); settings: compound 10 μM, protein 2 μM; average of triplicate
T10 construct: made in house
Procedure: as §1

[11] = biological target: T11, BRDT(1) (Homo sapiens, UniProt Q58F21); assay: Protein stability (thermal) shift assay, BRDT(1); settings: compound 10 μM, protein 2 μM; average of triplicate
T11 construct: made in house
Procedure: as §1

[12] = biological target: T12, PCAF (Homo sapiens, UniProt Q92831); assay: Protein stability (thermal) shift assay, PCAF; settings: compound 10 μM, protein 2 μM; average of triplicate
T12 construct: representative BRDs from other structural subfamilies (family I, PCAF); made in house
T12 sequence (Q92831 723-827 limits assumed): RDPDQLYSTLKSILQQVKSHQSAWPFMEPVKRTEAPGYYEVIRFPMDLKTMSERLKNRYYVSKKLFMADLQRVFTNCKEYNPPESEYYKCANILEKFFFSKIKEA
Procedure: as §1

[13] = biological target: T13, BRD3(2) (Homo sapiens, UniProt Q15059); assay: Protein stability (thermal) shift assay, BRD3(2); settings: compound 10 μM, protein 2 μM; average of triplicate
T13 construct: made in house
Procedure: as §1

T4 sequence (P25440 74-180 limits assumed): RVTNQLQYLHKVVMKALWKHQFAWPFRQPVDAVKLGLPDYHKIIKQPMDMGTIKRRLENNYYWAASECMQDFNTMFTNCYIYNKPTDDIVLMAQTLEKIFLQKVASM
T3 sequence (Q92793 1085-1192 limits assumed): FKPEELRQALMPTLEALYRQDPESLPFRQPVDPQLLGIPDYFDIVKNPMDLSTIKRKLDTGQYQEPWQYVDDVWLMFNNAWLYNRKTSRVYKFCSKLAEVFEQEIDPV
T13 sequence (Q15059 306-415 limits assumed): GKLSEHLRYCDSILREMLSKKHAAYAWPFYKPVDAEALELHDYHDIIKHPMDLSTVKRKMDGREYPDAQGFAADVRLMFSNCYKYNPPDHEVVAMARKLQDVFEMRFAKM
T1 sequence (Q15059 34-140 limits assumed): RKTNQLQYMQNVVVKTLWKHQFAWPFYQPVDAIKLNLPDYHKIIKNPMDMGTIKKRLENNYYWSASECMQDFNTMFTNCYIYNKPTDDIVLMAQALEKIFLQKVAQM
T10 sequence (Q86U86 653-763 limits assumed): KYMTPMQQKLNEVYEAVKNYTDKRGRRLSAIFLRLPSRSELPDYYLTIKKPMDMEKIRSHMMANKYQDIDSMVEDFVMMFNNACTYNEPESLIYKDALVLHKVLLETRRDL
T9 sequence (P25440 344-453 limits assumed): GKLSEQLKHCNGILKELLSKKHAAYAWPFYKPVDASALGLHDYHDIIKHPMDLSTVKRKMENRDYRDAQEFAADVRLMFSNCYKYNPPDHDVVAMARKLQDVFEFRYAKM

ΔTm at 10 µM [1]	ΔTm at 10 µM [2]	ΔTm at 10 µM [3]	ΔTm at 10 µM [4]	ΔTm at 10 µM [5]	ΔTm at 10 µM [6]	ΔTm at 10 µM [7]	ΔTm at 10 µM [8]	ΔTm at 10 µM [9]	ΔTm at 10 µM [10]	ΔTm at 10 µM [11]	ΔTm at 10 µM [12]	ΔTm at 10 µM [13]	binding to BRD9 in the ΔTm assay (in words) ([2]; thermal shift, 10 μM compound)	Compound
-0.125 °C	-0.9 °C	0.363 °C	-0.5 °C	-0.18 °C	-1 °C	-7.9 °C	0.271 °C	0.459 °C	0.339 °C	-0.322 °C	0.1 °C	0.215 °C	–	Nc1nc(-c2ccc(COc3cccc(C(F)(F)F)c3)cc2)c2nc[nH]c2n1 [Compound 3g, 2-Amino-6-(4-(3′-(trifluoromethyl)phenoxymethyl)phenyl)-9H-purine]
0.341 °C	-0.1 °C	0.34 °C	0.167 °C	0.7 °C	0.0167 °C	-1.3 °C	0.364 °C	0.4 °C	0.4 °C	-0.122 °C	-0.4 °C	1.3 °C	–	COc1cccc(OC)c1-c1nc(N)nc2[nH]cnc12 [Compound 6a, 2-Amino-6-(2,6-dimethoxyphenyl)-9H-purine]
0.5 °C	-0.532 °C	1 °C	0.354 °C	0.6 °C	-0.127 °C	-2.8 °C	0.7 °C	1.2 °C	0.5 °C	0.528 °C	-0.2 °C	2 °C	–	COCCc1ccc(OCc2ccc(-c3nc(N)nc4[nH]cnc34)cc2)cc1 [Compound 3h, 2-Amino-6-(4-((4′-(2-methoxyethyl)phenoxy)methyl)phenyl)-9H-purine]
0.445 °C	-2 °C	-0.04 °C	-0.113 °C	0.54 °C	2.3 °C	-2.9 °C	0.7 °C	0.159 °C	0.7 °C	0.658 °C	1.6 °C	-0.379 °C	–	COc1cc(COc2ccc(-c3nc(N)nc4[nH]cnc34)cc2Cl)cc(OC)c1 [Compound 4b, 2-Amino-6-(3-chloro-4-(3′,5′-dimethoxybenzyloxy)phenyl)-9H-purine]
-0.252 °C	-1.7 °C	0.9 °C	-0.5 °C	-0.15 °C	-0.367 °C	-2.6 °C	0.224 °C	-0.5 °C	0.536 °C	-0.0553 °C	-0.2 °C	-0.092 °C	–	Nc1nc(-c2ccc(OCc3ccccc3)c(Cl)c2)c2nc[nH]c2n1 [Compound 4a, 2-Amino-6-(4-benzyloxy-3-chlorophenyl)-9H-purine]
0.7 °C	–	1.5 °C	0.643 °C	1.5 °C	0.653 °C	1 °C	1.2 °C	1.4 °C	0.553 °C	0.7 °C	0.7 °C	1.2 °C	–	Nc1nc(-c2cccc(OCc3ccc(Cl)cc3)c2)c2nc[nH]c2n1 [Compound 4d, 2-Amino-6-(3-(4′-chlorobenzyloxy)phenyl)-9H-purine]
0.0747 °C	0.8 °C	-1.5 °C	-0.3 °C	0.4 °C	-0.9 °C	-1.3 °C	-0.166 °C	-0.0273 °C	-1.6 °C	-0.125 °C	-1.2 °C	0.9 °C	–	Nc1nc(-c2ccc3c(c2)OCCO3)c2nc[nH]c2n1 [Compound 4c, 2-Amino-6-(2,3-dihydrobenzo[b][1,4]dioxin-6-yl)-9H-purine]
-0.06 °C	0 °C	0.663 °C	-0.253 °C	0.223 °C	0.00333 °C	0.0133 °C	-0.167 °C	0.337 °C	-0.08 °C	-0.133 °C	0.0867 °C	0.4 °C	–	COc1ccc(-c2nc(N)nc3[nH]cnc23)cc1 [Compound 3b, 2-Amino-6-(4-methoxyphenyl)-9H-purine]
-0.127 °C	0.847 °C	0.6 °C	-0.0833 °C	0.533 °C	0.273 °C	0.5 °C	0.3 °C	0.5 °C	0.0567 °C	0.253 °C	0.2 °C	0.7 °C	–	Nc1nc(-c2ccc(Oc3ccccc3)cc2)c2nc[nH]c2n1 [Compound 3d, 2-Amino-6-(4-phenoxyphenyl)-9H-purine]
1.6 °C	0.316 °C	0.5 °C	0.4 °C	1.9 °C	-0.5 °C	-1.5 °C	1.5 °C	1.7 °C	0.3 °C	0.275 °C	-1.1 °C	2.7 °C	Affinity for BRD9 was lost	CCOc1ccc(Br)cc1-c1nc(N)nc2[nH]cnc12 [Compound 7e, 2-Amino-6-(5-bromo-2-ethoxyphenyl)-9H-purine]
0.7 °C	–	1.6 °C	0.361 °C	1.6 °C	-0.1 °C	0.5 °C	-0.234 °C	-0.374 °C	1.4 °C	-0.8 °C	-0.8 °C	-0.159 °C	–	Clc1nc(Cl)c2nc[nH]c2n1 [Compound 1, 2,6-dichloro-9H-purine]

Compound	ΔTm at 10 µM [1]	ΔTm at 10 µM [2]	ΔTm at 10 µM [3]	ΔTm at 10 µM [4]	ΔTm at 10 µM [5]	ΔTm at 10 µM [6]	ΔTm at 10 µM [7]	ΔTm at 10 µM [8]	ΔTm at 10 µM [9]	ΔTm at 10 µM [10]	ΔTm at 10 µM [11]	ΔTm at 10 µM [12]	ΔTm at 10 µM [13]	binding to BRD9 in the ΔTm assay (in words) ([2]; thermal shift, 10 μM compound)
COc1cccc(OCC(C)C)c1-c1nc(N)nc2[nH]cnc12 [Compound 6c, 2-Amino-6-(2-isobutoxy-6-methoxyphenyl)-9H-purine]	1.2 °C	-0.0523 °C	-0.4 °C	0.187 °C	1 °C	-0.147 °C	0.4 °C	0.8 °C	0.6 °C	-0.324 °C	-0.0153 °C	-0.121 °C	1.1 °C	–
CCCCOc1cc(Br)cc(-c2nc(N)nc3[nH]cnc23)c1 [Compound 5a, 2-Amino-6-(3-bromo-5-butoxyphenyl)-9H-purine]	0.9 °C	1.1 °C	1.7 °C	0.7 °C	1.6 °C	1.1 °C	1.3 °C	1.8 °C	1.7 °C	1.1 °C	1 °C	1.3 °C	1.5 °C	–
